Patent US20140023611A1 (priority 2010, published 2014)
Counter-ions that a name gives are not always drawn.

Tests used:
[1] = Determination of compound Cmax and AUC after oral gavage (plasma LC-MS/MS); type: in vivo, Sprague-Dawley rats; settings: Sprague-Dawley, rat, plasma, po, Structure (I) examples
Summary of the method: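 Sprague-Dawley rats dosed by oral gavage at nominal 2.5 or 10 mg/kg; blood drawn at 0.5, 1, 2 and 4 h into K2EDTA. Plasma protein-precipitated with acetonitrile plus internal standard and analysed by LC-MS/MS against a plasma standard curve to derive Cmax and AUC.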

[2] = molecular target: T1, rat NaP2b (SLC34A2) (Rattus norvegicus, UniProt Q9JJ09); test: Inhibition of NaP2b-mediated Pi (33P) uptake in transfected HEK293 cells, rat NaP2b; type: cell-based; settings: 33P Pi uptake, 0.1 mM phosphate, value given as pIC50 range
T1 construct: host or cells: HEK293
T1 sequence (Q9JJ09 1-695): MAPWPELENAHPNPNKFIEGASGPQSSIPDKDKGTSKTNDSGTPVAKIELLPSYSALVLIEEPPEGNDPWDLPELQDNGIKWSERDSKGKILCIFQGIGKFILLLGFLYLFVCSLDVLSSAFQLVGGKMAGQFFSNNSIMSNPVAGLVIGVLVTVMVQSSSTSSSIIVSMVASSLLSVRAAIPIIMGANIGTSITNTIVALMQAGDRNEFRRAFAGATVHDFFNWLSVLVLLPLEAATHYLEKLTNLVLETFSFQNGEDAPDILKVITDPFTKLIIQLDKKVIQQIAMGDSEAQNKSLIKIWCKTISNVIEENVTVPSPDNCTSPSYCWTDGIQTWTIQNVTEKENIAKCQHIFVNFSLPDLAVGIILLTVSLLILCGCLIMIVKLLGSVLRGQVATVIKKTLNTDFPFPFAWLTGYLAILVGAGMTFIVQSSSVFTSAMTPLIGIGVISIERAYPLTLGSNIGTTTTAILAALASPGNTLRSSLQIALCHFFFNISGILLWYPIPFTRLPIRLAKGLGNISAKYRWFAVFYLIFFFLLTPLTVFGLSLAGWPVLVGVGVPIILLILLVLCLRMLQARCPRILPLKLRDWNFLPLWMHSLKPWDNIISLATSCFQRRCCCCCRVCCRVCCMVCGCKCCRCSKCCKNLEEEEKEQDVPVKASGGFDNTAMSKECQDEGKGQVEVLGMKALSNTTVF
Summary of the method: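 HEK293 cells were transiently transfected with NaP2b cDNA using Lipofectamine and grown near confluence. Compounds were tested at twelve concentrations from 0.1 nM to 30 uM in duplicate, and 33P-phosphate uptake was counted by scintillation after lysis. Results are expressed as pIC50.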

[3] = Table 15, actual oral dose 3-15 mg/kg, plasma 0.5-4 h
[4] = Table 15, actual oral dose 15-40 mg/kg, plasma 0.5-4 h

Row | SMILES | AUC [1, 3] | Cmax [1, 3] | IC50 [2] | AUC [1, 4] | Cmax ([1]; Table 15, plasma 0.5-4 h)
1 | CCN(CC)c1ccc(NC(=O)c2cccc(CSCCOCCOCCOCCOCCOCCOCCOCCOC)c2)c(-c2cc(C(=O)N[C@H]3CCCc4ccccc43)ccn2)c1 [Example 286, (S)-2-(2-(3-(2,5,8,11,14,17,20,23-octaoxa-26-thiaheptacosan-27-yl)benzamido)-5-(diethylamino)phenyl)-N-(1,2,3,4-tetrahydronaphthalen-1-yl)isonicotinamide] | < 0.01 µg·h/mL | < 10 ng/mL | < 1 µM |  | 
2 | CCN(CC)c1ccc(NC(=O)c2cccc(CCCOCCOCCOCCOCCOCCOCCOCCOCCOCCC(=O)O)c2)c(-c2cc(C(=O)NCc3cccc(C(F)(F)F)c3)ccn2)c1 [Example 298, 31-(3-(4-(diethylamino)-2-(4-(3-(trifluoromethyl)benzylcarbamoyl)pyridin-2-yl)phenylcarbamoyl)phenyl)-4,7,10,13,16,19,22,25,28-nonaoxahentriacontan-1-oic acid] |  |  | 1 to 7.94 µM | < 0.03 µg·h/mL | < 30 ng/mL
3 | CCN(CC)c1ccc(NC(=O)c2cccc(CCCOCCOCCOCCOCCOCCOCCC(=O)O)c2)c(-c2cc(C(=O)NCc3cccc(C(F)(F)F)c3)ccn2)c1 [Example 299, 22-(3-(4-(diethylamino)-2-(4-(3-(trifluoromethyl)benzylcarbamoyl)pyridin-2-yl)phenylcarbamoyl)phenyl)-4,7,10,13,16,19-hexaoxadocosan-1-oic acid] |  |  | 1 to 7.94 µM | < 0.03 µg·h/mL | < 30 ng/mL
4 | CCN(CC)c1ccc(NC(=O)c2cccc(CCCOCCOCCOCCOCCOCCC(=O)O)c2)c(-c2cc(C(=O)NCc3cccc(C(F)(F)F)c3)ccn2)c1 [Example 300, 19-(3-(4-(diethylamino)-2-(4-(3-(trifluoromethyl)benzylcarbamoyl)pyridin-2-yl)phenylcarbamoyl)phenyl)-4,7,10,13,16-pentaoxanonadecan-1-oic acid] |  |  | 1 to 7.94 µM | < 0.03 µg·h/mL | < 10 ng/mL
5 | CCN(CC)c1ccc(NC(=O)c2cccc(C(=O)N(C)CCN(CCOC)CCOCCOCCOCCOCCOCCOCCOC)c2)c(-c2cc(C(=O)NCc3cccc(C(F)(F)F)c3)ccn2)c1 [Example 335, N^1-(4-(Diethylamino)-2-(4-(3-(trifluoromethyl)benzylcarbamoyl)pyridin-2-yl)phenyl)-N^3-(23-(2-methoxyethyl)-2,5,8,11,14,17,20-heptaoxa-23-azapentacosan-25-yl)-N^3-methylisophthalamide, trifluoroacetate] | > 0.05 µg·h/mL | < 10 ng/mL | 1 to 7.94 µM |  | 
